Like-named read-outs stand apart in the source and are kept apart here.
Assays:
[1] = molecular target: iAChSnFR (early version; iAChSnFR0.6 in Figure S2A); conditions: n = 3
[2] = molecular target: hSERT (Homo sapiens, UniProt P31645); assay: oscillating stimulus transporter assay; format: cell-based
[3] = molecular target: iSeroSnFR; format: binding, Thermoanaerobacter sp. X513; conditions: for Kd: read-out: apparent Kd, pH 7.4
[4] = tested on: electrically evoked 5-HT release in dorsal striatum slices; design: species or system mouse

hSERT, sequence (P31645 whole entry): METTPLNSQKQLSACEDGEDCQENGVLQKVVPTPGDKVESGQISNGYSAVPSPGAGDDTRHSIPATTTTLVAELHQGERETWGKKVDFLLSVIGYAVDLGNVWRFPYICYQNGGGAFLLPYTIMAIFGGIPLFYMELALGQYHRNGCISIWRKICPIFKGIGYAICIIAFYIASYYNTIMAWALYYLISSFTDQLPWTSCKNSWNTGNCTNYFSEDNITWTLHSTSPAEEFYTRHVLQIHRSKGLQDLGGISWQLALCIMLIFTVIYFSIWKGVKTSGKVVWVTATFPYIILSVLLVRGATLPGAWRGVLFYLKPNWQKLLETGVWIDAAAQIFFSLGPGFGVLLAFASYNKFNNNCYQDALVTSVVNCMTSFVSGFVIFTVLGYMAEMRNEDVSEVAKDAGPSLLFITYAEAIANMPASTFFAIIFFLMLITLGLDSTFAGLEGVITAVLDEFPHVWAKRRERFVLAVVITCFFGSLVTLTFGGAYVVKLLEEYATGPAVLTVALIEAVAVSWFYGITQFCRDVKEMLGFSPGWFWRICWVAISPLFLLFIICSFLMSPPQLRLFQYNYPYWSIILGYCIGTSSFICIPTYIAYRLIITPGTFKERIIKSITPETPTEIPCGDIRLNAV

NCCc1c[nH]c2ccc(O)cc12 [5-HT, serotonin (5-hydroxytryptamine)]
Kd [1]: > 1000 µM

CNC(C)Cc1ccc2c(c1)OCO2 (stereo not shown) [MDMA, 3,4-methyl enedioxy methamphetamine]
enhancement in 5-HT efflux [2]: 2 fold

CCCCCCCCCCCCCC(=O)O[C@@H]1[C@@H](C)[C@@]2(O)[C@@H](C=C(CO)C[C@]3(O)C(=O)C(C)=C[C@@H]23)[C@@H]2C(C)(C)[C@]12OC(C)=O [PMA, phorbol 12-myristate 13-acetate]
effect on 5-HT transport rate ([2]; 400 nM): slow decrement in transport rate over ~40 minutes

COC(=O)[C@H]1[C@@H](OC(=O)c2ccccc2)C[C@@H]2CC[C@H]1N2C [cocaine]
effect on 5-HT transport [2]: reduced

NCCc1ccc(O)c(O)c1 [dopamine]
Kd [3]: 5600 µM

NC1=N[C@H](O)[C@H]2[C@H]3O[C@]4(O)O[C@@H]([C@@H](O)[C@@]2(N1)[C@@H]4O)[C@]3(O)CO [tetrodotoxin]
effect on electrically evoked fluorescence transients [4]: completely abolished

NCCc1c[nH]c2ccccc12 [tryptamine]
times weaker affinity than 5-HT ([3]; purified iSeroSnFR): 8 times | Kd ([3]; purified iSeroSnFR 100 nM): 2400 µM

N#Cc1ccc2[nH]cc(CCCCN3CCN(c4ccc5oc(C(N)=O)cc5c4)CC3)c2c1 [vilazodone]
effect on 5-HT transport ([2]; concentration not given): caused transport function to rapidly disappear | recovery of transport after washout ([2]; washouts of >20 minutes): did not return to baseline
